{"source": "patent US20170314056A1", "about": "“METHOD OF USING NEAR INFRARED FLUORESCENT DYES FOR IMAGING AND TARGETING CANCERS” (priority 2010, published 2017)", "key": {"[1]": {"test_system": "mouse pancreatic cancer cell lines (PDAC2.3, PDAC3.3, BTC3 and BTC4)", "assay": "Uptake of NIR dyes by mouse pancreatic cancer cell lines", "format": "cell-based", "settings": "PDAC2.3, PDAC3.3, BTC3, BTC4; 20 μM dye"}, "P69 cells": {"test_system": "P69 cells", "assay": "Live-cell kinetics of dye uptake in normal prostate epithelial cells", "format": "cell-based, human", "protocol": "Cells were plated on live-cell imaging chambers (World Precision Instrument, Sarasota, Fla.) overnight. Cells were exposed to cyanine dyes at different concentrations and dye uptake was evaluated by a Perkin-Elmer Ultraview ERS spinning disc confocal microscope. This system was mounted on a Zeiss Axiovert 200m inverted microscope equipped with a 37° C. stage warmer, incubator, and constant CO2 perfusion. A 63× or 100× Zeiss oil objective (numerical aperture, 1.4) was used for live cell images and a Z-stack was created using the attached piezoelectric z-stepper motor. The 633 nm laser line of an argon ion laser (set at 60% power) was used to excite the cyanine dyes. […] For comparative studies, the exposure time and laser intensity were kept identical for accurate intensity measurements. Pixel intensity was quantified using Metamorph 6.1 (Universal Imaging, Downingtown, Pa.) and the mean pixel intensity was generated as grey level using the Region Statistics feature on the software (23). To determine the dye uptake by the mitochondria, the mitochondrial tracking dye Mito Tracker Orange CMTMROS (Molecular Probes, Carlsbad, Calif.) was used. To determine the dye localization in lysosomes, a lysosome tracking dye, Lyso Tracker Green DND-26 (Molecular Probes, Carlsbad, Calif.), was selected. Imaging of mitochondrial and/or lysosome localization of the cyanine dye was conducted under confocal microscopy (24).\nTo determine if the cyanine dye uptake and accumulation in cancer cells was dependent upon OATPs, cells were preincubated with 250 μM bromosulfophthalein (BSP), a competitive inhibitor of organic anion transporting peptides (OATPs) (25), for 5 minutes prior to incubating the cells with cyanine dyes. The uptake and accumulation of cyanine dyes in the presence and absence of BSP were conducted in the stage warmer incubator for a period of 35 minutes. The levels of cyanine dye taken up and accumulated in normal prostate (P69) and prostate cancer (ARCaPM) cells were determined and compared on a real-time basis."}, "[2]": {"test_system": "human renal tumor tissues", "assay": "In vitro fluorescence imaging of freshly harvested human renal tumor tissues", "format": "cell-based", "settings": "fresh nephrectomy specimens; 20 µM dye, 37° C., 30 minutes", "protocol": "Kidney tumor tissue samples were collected from 5 patients immediately after tumor nephrectomy according to an Emory approved IRB protocol. All 5 patients had histologically confirmed renal cell carcinoma of the clear cell type. The tissues were excised from tumor area, normal area and the area of tumor and normal adjacent on the kidney removed. All above procedures were conducted on ice and the excised tissues were stored at 4° C. Each incised tissue was cut into three pieces and were incubated with 20 µM IR-783 dye, 20 µM IR-780 and PBS, respectively, at 37° C. for 30 minutes. The dye solutions were removed and the tissues were washed five times by PBS. Optical imaging was done using Kodak Imaging Station Imaging System (see above).\nTo determine dye uptake in tissues, tissues cut from incised kidney samples (described above) tumor were placed in OTC medium and frozen at −80° C. These frozen tissues were retrieved for histopathologic sections cut to 5 Lm thickness for pathologic observation under a confocal microscope as described above."}, "[3]": {"test_system": "ARCaPM orthotopic tumor metastases", "assay": "Detection of metastases of orthotopic ARCaPM tumors in mice", "format": "in vivo, mouse", "settings": "orthotopic ARCaPM (ARCaP) model; bone and soft tissue metastases", "protocol": "The spontaneous metastasis of ARCaPM tumor cells stably transduced with an AsRed2 red fluorescence protein (RFP) (Clontech, Mountain View, Calif.) by injecting these cells orthotopically in mice was studied. ARCaPM-RFP metastasis was determined by the same procedures described above for capturing cyanine dye tumor imaging after IR-783 i.p. injection at a dose of 10 nmol/20 g. In addition, at the time of sacrifice both frozen and paraffin embedded tissue sections were obtained for RFP and confocal fluorescence imaging. Positive identification of ARCaPM-RFP cells was accomplished by fluorescence microscopy and validated by subculturing ARCaPM-RFP cells directly from bone metastasis tissue specimens."}, "[4]": {"settings": "aqueous media; cited from earlier work"}, "[5]": {"assay": "Physicochemical properties of the dye"}, "renal cancer cells": {"test_system": "renal cancer cells", "assay": "Subcellular co-localization in renal cancer cells", "format": "cell-based, human", "settings": "Mito tracker and Lyso tracker overlay", "protocol": "To determine the dye uptake by the mitochondria, the mitochondrial tracking dye, Mito Tracker Orange CMTMROS (Molecular Probes, Carlsbad, Calif.), was used. To determine the dye localization in lysosomes, a lysosome tracking dye, Lyso Tracker Green DND-26 (Molecular Probes, Carlsbad, Calif.), was selected. Images of mitochondrial and/or lysosome localization of the cyanine dye were merged and evidence of co-localization of the cyanine dye and tracking dyes were assessed by confocal imaging using a previously established protocol.^69"}, "ARCaPM tumor": {"test_system": "ARCaPM tumor", "assay": "Dye biodistribution in ARCaPM tumor-bearing mice", "format": "in vivo, mouse", "excerpt": "To assess tissue distribution of these dyes, athymic mice without tumor implantation were sacrificed at 0, 6 and 80 hrs (N=3 each) after i.v. injection of IR-783 dye at a dose of 10 nmol/20 g. Dissected organs were subjected to NIR imaging by a Kodak Imaging Station 4000 MM. In another study the mice bearing orthotopic ARCaPM tumors were subjected to NIR imaging at 0.5, 24, 48, 72 and 96 hrs after IR-783 i.v. administration at a dose of 10 nmol/20 g. In some cases, we also assessed the biodistribution of NIR dye by a spectral method in tissues harvested from athymic mice bearing subcutaneous ARCaPM tumors (N=6). Tumors and normal host organs were homogenized in PBS, centrifuged at 15,000×g for 15 minutes to recover the supernatant fraction after the mice were injected i.p. with IR-783 at a dose of 10 nmol/20 g. The presence of the organic dyes (parental IR-783 and its metabolites) in tissues was estimated spectrophotometrically at an emission wavelength of 820 nm by a PTI Near Infrared Fluorometer QuantaMaster™ 50 (PTI, Birmingham, N.J.) equipped with a 75-watt xenon arc lamp under 500 to 1700 nm InGaAs detector using known concentrations of IR-783 as the standard (28). In other cases, tumor tissues harvested from mice were stored in formalin from 1 week to 3 months, and fluorescence images were obtained and compared."}}, "note": "“Also recorded” adds a separate entry of the source."}
{"substance": "2-[2-[2-Chloro-3-[2-[1,3-dihydro-3,3-dimethyl-1-(4-sulfobutyl)-2H-indol-2-ylidene]-ethylidene]-1-cyclohexen-1-yl]-ethenyl]-3,3-dimethyl-1-(4-sulfobutyl)-3H-indolium [IR-783]", "values": [{"measurement": "uptake of dye by mouse pancreatic cancer cell lines", "setting": "[1]", "value": "taken up by other malignant cells from both human and mouse; also recorded: significant uptake"}, {"measurement": "uptake of dye in P69 cells", "setting": "P69 cells; confocal imaging, 630×", "value": "not in normal human prostate epithelial P69 cells"}, {"measurement": "plateau of uptake and retention compared with ARCaP cells", "setting": "P69 cells; control P69 cells", "value": "much lower plateau"}, {"measurement": "start of uptake and retention", "setting": "P69 cells; control P69 cells", "value": 12, "unit": "min"}, {"measurement": "dye uptake in human renal tumor tissue", "setting": "[2]", "value": "can be taken up; also recorded: significant uptake; also recorded: strong IR-783 uptake"}, {"measurement": "dye uptake in normal kidney tissue", "setting": "[2]", "value": "substantial low uptake; also recorded: undetectable; also recorded: not in normal kidney tissues"}, {"measurement": "signal in tumor tissues compared with IR-780 and PBS", "setting": "[2]", "value": "stronger signals in tumor tissues than the IR-780 and PBS group"}, {"measurement": "detection of metastases by NIR imaging", "setting": "[3]", "value": "highly effective in localizing tumors cells in soft tissues and in bone; also recorded: both the primary tumor and the metastases in mouse tibia/femur were detected; also recorded: signals attained in IR-783 imaging reflect metastases of the orthotopic ARCaPM tumor"}, {"measurement": "maximum absorption", "setting": "[4]", "value": 782, "unit": "nm"}, {"measurement": "photostability", "setting": "[5]", "value": "relatively photostable"}, {"measurement": "water solubility", "setting": "[5]", "value": "water-soluble"}, {"measurement": "subcellular localization of the dye", "setting": "renal cancer cells", "value": "co-localization with mitochondrial and lysosome organelles"}, {"measurement": "dye signal in tumor tissue", "setting": "ARCaPM tumor; 24 hrs after dye, ARCaPM tumor, in vivo and ex vivo imaging", "value": "accumulate in tumor tissues; also recorded: strong signals"}, {"measurement": "signal to noise ratios in tumor specimens", "setting": "ARCaPM tumor; in vivo whole body and ex vivo analysis", "value": "exceeding 25"}, {"measurement": "apparent concentration of dye and its metabolites in tumors versus normal tissues", "setting": "ARCaPM tumor; light emission intensity at 820 nm, P<0.05, 3 determinations", "value": "~10", "unit": "fold"}, {"measurement": "signals in normal organs", "setting": "ARCaPM tumor; liver, lung, heart, spleen and kidneys", "value": "very low signals"}, {"measurement": "time at which tumors still retained dye", "setting": "ARCaPM tumor; orthotopic ARCaPM tumor, i.v. 10 nmol/20 g", "value": "≥ 4", "unit": "days"}]}
